Reference: patent publication US7759337B2, “Phthalazine compounds and methods of use” (Amgen Inc., priority 2005, dated 2010)
pIC50: −log10 of the molar value.

The compounds below were run on production of TNF by monocytes activated with bacterial lipopolysaccharide (LPS) (assay: Lipopolysaccharide-activated monocyte TNF production assay). Settings: Homo sapiens; whole blood monocyte assay (LPS induced TNF release).
Assay type: cell-based
Outline: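 Adherent human PBMC-derived monocytes preincubated 60 min with nine two-fold compound dilutions, then stimulated with E. coli K532 LPS (30 ng/mL in the added medium) for 4 h at 37 °C. Supernatant TNF measured by sandwich ELISA; IC50 is the compound concentration halving TNF production, from second-order polynomial fits.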

**Q.** How did the pIC50 turn out when Cc1ccc(C(=O)NC2CC2)cc1-c1ccc2c(N3CCC[C@@H]4CCCC[C@@H]43)nncc2c1 [Example 154, 3-{1-[(4aS,8aS)-octahydroquinolin-1(2H)-yl]phthalazin-6-yl}-N-cyclopropyl-4-methylbenzamide] was run?
**A.** ≥ 5.30

**Q.** How did the pIC50 turn out when Cc1ccc(C(N)=O)cc1-c1ccc2c(OC(C)C)nncc2c1 [Example 155, 3-(1-isopropoxyphthalazin-6-yl)-4-methylbenzamide] was run?
**A.** ≥ 5.30

**Q.** Cc1ccc(C(N)=O)cc1-c1ccc2c(-c3ccccc3Cl)nncc2c1 [Example 156, 3-[1-(2-chlorophenyl)phthalazin-6-yl]-4-methylbenzamide] was tested. Which pIC50 did it give?
**A.** ≥ 5.30

**Q.** With CC(=O)N1CCN(c2nncc3cc(-c4cc(C(=O)NC5CC5)ccc4C)ccc23)CC1 [Example 157, 3-[1-(4-acetylpiperazin-1-yl)phthalazin-6-yl]-N-cyclopropyl-4-methylbenzamide] as the compound, how does the pIC50 read?
**A.** ≥ 5.30

**Q.** With Cc1ccc(C(=O)NC2CC2)cc1-c1ccc2c(NC3CCCCC3)nncc2c1 [Example 158, 3-[1-(cyclohexylamino)phthalazin-6-yl]-N-cyclopropyl-4-methylbenzamide] as the compound, how does the pIC50 read?
**A.** ≥ 5.30

**Q.** Cc1ccc(C(=O)NC2CC2)cc1-c1ccc2c(N3CCCCC3)nncc2c1 [Example 159, N-cyclopropyl-4-methyl-3-(1-piperidin-1-ylphthalazin-6-yl)benzamide] was tested. Which pIC50 did it give?
**A.** ≥ 5.30

**Q.** Cc1ccc(C(=O)NC2CC2)cc1-c1ccc2c(N3CCO[C@@H](CO)C3)nncc2c1 [Example 160, N-cyclopropyl-3-{1-[(2R)-2-(hydroxymethyl)morpholin-4-yl]phthalazin-6-yl}-4-methylbenzamide] was tested. Which pIC50 did it give?
**A.** ≥ 5.30

**Q.** How did the pIC50 turn out when Cc1ccc(C(=O)NC2CC2)cc1-c1ccc2c(N3CCN(c4c(C)cccc4C)CC3)nncc2c1 [Example 162, N-cyclopropyl-3-{1-[4-(2,6-dimethylphenyl)piperazin-1-yl]phthalazin-6-yl}-4-methylbenzamide] was run?
**A.** ≥ 5.30

**Q.** With Cc1ccc(C(=O)NC2CC2)cc1-c1ccc2c(N3CCNC(=O)C3)nncc2c1 [Example 163, N-cyclopropyl-4-methyl-3-[1-(3-oxopiperazin-1-yl)phthalazin-6-yl]benzamide] as the compound, how does the pIC50 read?
**A.** ≥ 5.30

**Q.** How did the pIC50 turn out when Cc1ccc(C(=O)NC2CC2)cc1-c1ccc2c(Cl)nncc2c1 [Example 164, 3-(1-chlorophthalazin-6-yl)-N-cyclopropyl-4-methylbenzamide] was run?
**A.** ≥ 5.30

**Q.** With Cc1ccc(C(=O)NC2CC2)cc1-c1ccc2c(N3CCNCC3)nncc2c1 [Example 165, N-cyclopropyl-4-methyl-3-(1-piperazin-1-ylphthalazin-6-yl)benzamide] as the compound, how does the pIC50 read?
**A.** ≥ 5.30

**Q.** With Cc1ccc(C(=O)NC2CC2)cc1-c1ccc2c(N3CC[C@@H](O)C3)nncc2c1 [Example 166, N-cyclopropyl-3-{1-[(3R)-3-hydroxypyrrolidin-1-yl]phthalazin-6-yl}-4-methylbenzamide] as the compound, how does the pIC50 read?
**A.** ≥ 5.30

**Q.** How did the pIC50 turn out when Cc1ccc(C(=O)NC2CC2)cc1-c1ccc2c(N3CCC4(CC3)OCCO4)nncc2c1 [Example 167, N-cyclopropyl-3-[1-(1,4-dioxa-8-azaspiro[4.5]dec-8-yl)phthalazin-6-yl]-4-methylbenzamide] was run?
**A.** ≥ 5.30

**Q.** With Cc1ccc(C(=O)NC2CC2)cc1-c1ccc2c(OC(C)C)nncc2c1 [Example 168, N-cyclopropyl-3-(1-isopropoxyphthalazin-6-yl)-4-methylbenzamide] as the compound, how does the pIC50 read?
**A.** ≥ 5.30

**Q.** With COc1nncc2cc(-c3cc(C(=O)NC4CC4)ccc3C)ccc12 [Example 169, N-cyclopropyl-3-(1-methoxyphthalazin-6-yl)-4-methylbenzamide] as the compound, how does the pIC50 read?
**A.** ≥ 5.30

**Q.** Cc1ccc(C(=O)NC2CC2)cc1-c1ccc2c(-c3ccccc3Cl)nncc2c1 [Example 170, 3-[1-(2-chlorophenyl)phthalazin-6-yl]-N-cyclopropyl-4-methylbenzamide] was tested. Which pIC50 did it give?
**A.** ≥ 5.30

**Q.** With Cc1ccc(C(N)=O)cc1-c1ccc2c(N3C[C@@H](C)OC[C@H]3C)nncc2c1 [Example 171, 3-{1-[(2R,5R)-2,5-dimethylmorpholin-4-yl]phthalazin-6-yl}-4-methylbenzamide] as the compound, how does the pIC50 read?
**A.** ≥ 5.30

**Q.** How did the pIC50 turn out when Cc1ccc(C(=O)NC2CC2)cc1-c1ccc2c(NC(C)C)nncc2c1 [Example 172, N-cyclopropyl-3-[1-(isopropylamino)phthalazin-6-yl]-4-methylbenzamide] was run?
**A.** ≥ 5.30

**Q.** With Cc1ccc(C(=O)NC2CC2)cc1-c1ccc2c(N3C[C@H](C)OC[C@H]3C)nncc2c1 [Example 173, N-cyclopropyl-3-{1-[(2S,5R)-2,5-dimethylmorpholin-4-yl]phthalazin-6-yl}-4-methylbenzamide] as the compound, how does the pIC50 read?
**A.** ≥ 5.30

**Q.** With Cc1ccc(C(=O)NC2CC2)cc1-c1ccc2c(N3C[C@@H](C)OC[C@H]3C)nncc2c1 [Example 174, N-cyclopropyl-3-{1-[(2R,5R)-2,5-dimethylmorpholin-4-yl]phthalazin-6-yl}-4-methylbenzamide] as the compound, how does the pIC50 read?
**A.** ≥ 5.30

**Q.** Cc1ccc(C(N)=O)cc1-c1ccc2c(N3CCOCC3)nncc2c1 [Example 175, 4-methyl-3-(1-morpholin-4-ylphthalazin-6-yl)benzamide] was tested. Which pIC50 did it give?
**A.** ≥ 5.30

**Q.** How did the pIC50 turn out when Cc1ccc(C(N)=O)cc1-c1ccc2c(-c3ccccc3C)nncc2c1 [Example 176, 4-methyl-3-[1-(2-methylphenyl)phthalazin-6-yl]benzamide] was run?
**A.** ≥ 5.30

**Q.** NC(=O)c1ccc(F)c(-c2ccc3c(N4CCOCC4)nncc3c2)c1 [Example 177, 4-fluoro-3-(1-morpholin-4-ylphthalazin-6-yl)benzamide] was tested. Which pIC50 did it give?
**A.** ≥ 5.30

**Q.** With Cc1ccc(C(=O)NC2CC2)cc1-c1ccc2c(N3CCOC[C@@H]3C)nncc2c1 [Example 178, N-cyclopropyl-4-methyl-3-{1-[(3S)-3-methylmorpholin-4-yl]phthalazin-6-yl}benzamide] as the compound, how does the pIC50 read?
**A.** ≥ 5.30

**Q.** Cc1ccc(C(N)=O)cc1-c1ccc2c(NC(C)C)nncc2c1 [Example 179, 3-[1-(isopropylamino)phthalazin-6-yl]-4-methylbenzamide] was tested. Which pIC50 did it give?
**A.** ≥ 5.30

**Q.** Cc1ccc(C(=O)NC2CC2)cc1-c1ccc2c(N3CCCC[C@H]3C)nncc2c1 [Example 180, N-cyclopropyl-4-methyl-3-{1-[(2R)-2-methylpiperidin-1-yl]phthalazin-6-yl}benzamide] was tested. Which pIC50 did it give?
**A.** ≥ 5.30

**Q.** CNC(=O)c1ccc(C)c(-c2ccc3c(N4CCOCC4)nncc3c2)c1 [Example 181, N,4-dimethyl-3-(1-morpholin-4-ylphthalazin-6-yl)benzamide] was tested. Which pIC50 did it give?
**A.** ≥ 5.30

**Q.** With Cc1ccc(C(N)=O)cc1-c1ccc2c(N3CCCC[C@H]3C)nncc2c1 [Example 182, 4-methyl-3-{1-[(2R)-2-methylpiperidin-1-yl]phthalazin-6-yl}benzamide] as the compound, how does the pIC50 read?
**A.** ≥ 5.30

**Q.** How did the pIC50 turn out when Cc1ccc(C(=O)NC2CC2)cc1-c1ccc2c(NCCN(C)C)nncc2c1 [Example 183, N-cyclopropyl-3-(1-{[2-(dimethylamino)ethyl]amino}phthalazin-6-yl)-4-methylbenzamide] was run?
**A.** ≥ 5.30

**Q.** How did the pIC50 turn out when Cc1ccc(C(N)=O)cc1-c1ccc2c(N3CCOC[C@@H]3C)nncc2c1 [Example 184, 4-methyl-3-{1-[(3S)-3-methylmorpholin-4-yl]phthalazin-6-yl}benzamide] was run?
**A.** ≥ 5.30

**Q.** Cc1ccc(C(N)=O)cc1-c1ccc2c(N[C@H](C)CO)nncc2c1 [Example 185, 3-(1-{[(1R)-2-hydroxy-1-methylethyl]amino}phthalazin-6-yl)-4-methylbenzamide] was tested. Which pIC50 did it give?
**A.** ≥ 5.30

**Q.** How did the pIC50 turn out when CCN(CC)CCNc1nncc2cc(-c3cc(C(=O)NC4CC4)ccc3C)ccc12 [Example 186, N-cyclopropyl-3-(1-{[2-(diethylamino)ethyl]amino}phthalazin-6-yl)-4-methylbenzamide] was run?
**A.** ≥ 5.30
